Laboratory results reported in ChEMBL document CHEMBL5252620, “Introducing Conformational Restraints on 25CN-NBOH: A Selective 5-HT2A Receptor Agonist” (ACS Med Chem Lett, 2023).
Values joined by “and” are separate entries in the source; they are usually repeats but may differ in a detail not shown here. Equal values may be shown once. Active and inactive are the calls of the source. No cut-off for these calls is given here.

Legend:
[1] = molecular target: T1, 5-hydroxytryptamine receptor 2C (Homo sapiens) (UniProt P28335); experiment: Agonist activity at 5-HT2CR (unknown origin) stably expressed in HEK293 cells at 10 to 100 uM measured after 1 hr by fluorescence based Ca2+/Fluo-4 assay; format: cell-based; settings: filed as agonist, dose 10-100 µM
T1 sequence (whole entry): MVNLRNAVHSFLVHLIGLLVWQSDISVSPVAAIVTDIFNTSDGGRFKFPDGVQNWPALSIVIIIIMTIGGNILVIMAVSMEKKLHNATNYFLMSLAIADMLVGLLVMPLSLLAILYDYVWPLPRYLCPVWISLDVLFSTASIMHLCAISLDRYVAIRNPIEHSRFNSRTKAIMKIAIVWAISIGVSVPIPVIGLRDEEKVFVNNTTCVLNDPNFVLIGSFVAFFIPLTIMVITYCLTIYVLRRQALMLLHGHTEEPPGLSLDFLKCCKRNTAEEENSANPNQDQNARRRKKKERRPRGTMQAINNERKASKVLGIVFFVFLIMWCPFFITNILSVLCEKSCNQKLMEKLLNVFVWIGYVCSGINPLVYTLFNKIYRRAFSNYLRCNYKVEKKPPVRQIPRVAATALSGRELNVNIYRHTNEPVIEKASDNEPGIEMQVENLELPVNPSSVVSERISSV

[2] = molecular target: 5-hydroxytryptamine receptor 2A (Homo sapiens, UniProt P28223); experiment: Agonist activity at 5-HT2AR (unknown origin) stably expressed in HEK293 cells measured after 1 hr by fluorescence based Ca2+/Fluo-4 assay; format: cell-based
[3] = molecular target: T1, 5-hydroxytryptamine receptor 2C (Homo sapiens); experiment: Agonist activity at 5-HT2CR (unknown origin) stably expressed in HEK293 cells at 30 to 100 uM measured after 1 hr by fluorescence based Ca2+/Fluo-4 assay; format: cell-based; settings: filed as agonist, dose 30-100 µM
[4] = molecular target: T1, 5-hydroxytryptamine receptor 2C (Homo sapiens); experiment: Agonist activity at 5-HT2CR (unknown origin) stably expressed in HEK293 cells assessed as maximal response measured after 1 hr by fluorescence based Ca2+/Fluo-4 assay relative to control; format: cell-based; settings: filed as agonist
[5] = molecular target: T2, 5-hydroxytryptamine receptor 2C (Homo sapiens, UniProt P28335)
T2 sequence (P28335 whole entry): T1 sequence (whole entry)
Description: Agonist activity at 5-HT2CR (unknown origin) stably expressed in HEK293 cells measured after 1 hr by fluorescence based Ca2+/Fluo-4 assay

5-hydroxytryptamine receptor 2A, sequence (P28223 whole entry): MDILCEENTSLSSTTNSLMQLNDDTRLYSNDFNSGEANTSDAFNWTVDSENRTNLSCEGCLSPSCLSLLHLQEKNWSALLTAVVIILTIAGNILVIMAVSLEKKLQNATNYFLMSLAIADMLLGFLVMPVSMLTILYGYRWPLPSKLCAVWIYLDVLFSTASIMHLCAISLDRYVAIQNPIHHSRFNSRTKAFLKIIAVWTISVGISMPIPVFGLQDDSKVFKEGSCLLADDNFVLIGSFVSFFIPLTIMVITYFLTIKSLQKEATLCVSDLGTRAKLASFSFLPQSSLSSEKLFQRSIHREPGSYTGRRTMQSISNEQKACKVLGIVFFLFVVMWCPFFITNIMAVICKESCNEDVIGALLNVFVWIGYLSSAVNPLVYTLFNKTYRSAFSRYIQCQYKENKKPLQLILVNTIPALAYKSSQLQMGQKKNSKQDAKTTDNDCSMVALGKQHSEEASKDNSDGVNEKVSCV

Structure (SMILES)	Activity [1]	EC50 ([2]; read-out: EC50)	Activity [3]	EC50 ([2]; read-out: pEC50 (converted))	Rmax [4]	EC50 [5]
COc1cc(C[C@H]2CCC[C@H](c3ccccc3O)N2)c(OC)cc1C#N	Active	0.93 µM				
COc1cc(C[C@@H]2CCC[C@@H](c3ccccc3O)N2)c(OC)cc1C#N	Active	0.091 µM				
COc1cc(CC2CCCC(c3ccccc3O)N2)c(OC)cc1C#N (centres undefined)		2.7 µM	Active	3.55 µM		
COc1cc(CCNCc2ccccc2O)c(OC)cc1C#N					78%	0.178 µM and 0.17 µM
